Reference: PubChem BioAssay AID330 (DTP/NCI, 2004)
Values joined by “and” are separate entries in the source; they are usually repeats but may differ in a detail not shown here. Identical values can stand only once. Inconclusive results and toxic doses are left out.

System: P388 leukemia ip, CD2F1 mice, survival T/C
Assay: NCI In Vivo Anticancer Drug Screen. Data for tumor model P388 Leukemia (intraperitoneal) in CD2F1 (CDF1) mice
Settings: endpoint: median survival time, higher = longer survival
Method in brief: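 Mice carrying the transplanted tumor received test compound or vehicle. Survival was recorded in each group, and the value is the treated-group measurement divided by that of the vehicle-treated control group.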

[1] = dose: 100.0 mg/kg/injection, schedule: Q01DX009 (ip), vehicle: saline
[2] = dose: 50.0 mg/kg/injection, schedule: Q01DX005 (ip), vehicle: Klucel (hydroxypropylcellulose) (HPC)
[3] = dose: 100.0 mg/kg/injection, schedule: Q01DX005 (ip), vehicle: Klucel (hydroxypropylcellulose) (HPC)
[4] = dose: 50.0 mg/kg/injection, schedule: Q01DX005 (ip), vehicle: saline with Tween-80
[5] = dose: 100.0 mg/kg/injection, schedule: Q01DX005 (ip), vehicle: saline with Tween-80
[6] = dose: 200.0 mg/kg/injection, schedule: Q01DX005 (ip), vehicle: saline with Tween-80
[7] = dose: 100.0 mg/kg/injection, schedule: Q01DX001 (ip), vehicle: Klucel (hydroxypropylcellulose) (HPC)
[8] = dose: 200.0 mg/kg/injection, schedule: Q01DX001 (ip), vehicle: Klucel (hydroxypropylcellulose) (HPC)
[9] = dose: 400.0 mg/kg/injection, schedule: Q01DX001 (ip), vehicle: Klucel (hydroxypropylcellulose) (HPC)
[10] = dose: 200.0 mg/kg/injection, schedule: Q01DX005 (ip), vehicle: Klucel (hydroxypropylcellulose) (HPC)

Structure (SMILES): CC(C)c1cccc(O)c1O
- T/C [1]: 97 % of control

Structure (SMILES): NC(=S)c1cccc(OCCCOc2ccccc2)c1
- T/C [2]: 96 % of control
- T/C [3]: 91 % of control

Structure (SMILES): CCOS(=O)(=O)CC(C)C(C)C (configuration not stated)
- T/C [4]: 98 % of control
- T/C [5]: 104 % of control
- T/C [6]: 101 % of control

Structure (SMILES): O=c1cc(-c2ccccc2)[nH]c(=S)[nH]1
- T/C (dose: 50.0 mg/kg/injection, schedule: Q01DX001 (ip), vehicle: Klucel (hydroxypropylcellulose) (HPC)): 103 % of control
- T/C [7]: 100 % of control
- T/C [8]: 99 % of control
- T/C [9]: 106 % of control

Structure (SMILES): O=S=C(c1ccccc1)N(Cc1ccccc1)Cc1ccccc1
- T/C (dose: 25.0 mg/kg/injection, schedule: Q01DX009 (ip), vehicle: saline): 96 % of control
- T/C (dose: 50.0 mg/kg/injection, schedule: Q01DX009 (ip), vehicle: saline): 97 % of control
- T/C [1]: 97 % of control

Structure (SMILES): O=c1[nH]ncc2c1Sc1cn[nH]c(=O)c1S2
- T/C [4]: 97 % of control
- T/C [5]: 104 % of control
- T/C [6]: 100 % of control

Structure (SMILES): Cc1cc2c(cc1C)NC1=C(N2)OC(c2ccc3c(c2)OCO3)C1=O (configuration not stated)
- T/C (dose: 30.0 mg/kg/injection, schedule: Q01DX005 (ip), vehicle: Klucel (hydroxypropylcellulose) (HPC)): 88 % of control
- T/C (dose: 60.0 mg/kg/injection, schedule: Q01DX005 (ip), vehicle: Klucel (hydroxypropylcellulose) (HPC)): 101 % of control and 97 % of control
- T/C (dose: 120.0 mg/kg/injection, schedule: Q01DX005 (ip), vehicle: Klucel (hydroxypropylcellulose) (HPC)): 100 % of control and 104 % of control

Structure (SMILES): O=NN(CC(=O)OCc1ccccc1)OCc1ccccc1
- T/C (dose: 12.5 mg/kg/injection, schedule: Q01DX009 (ip), vehicle: other): 101 % of control
- T/C (dose: 25.0 mg/kg/injection, schedule: Q01DX009 (ip), vehicle: other): 104 % of control
- T/C (dose: 50.0 mg/kg/injection, schedule: Q01DX009 (ip), vehicle: other): 102 % of control
- T/C (dose: 100.0 mg/kg/injection, schedule: Q01DX009 (ip), vehicle: other): 108 % of control
- T/C (dose: 200.0 mg/kg/injection, schedule: Q01DX009 (ip), vehicle: other): 100 % of control

Structure (SMILES): Cc1cc(C)c(C2=NO[C@H]3c4ccccc4OC[C@@H]23)c(C)c1
- T/C [2]: 105 % of control
- T/C [3]: 96 % of control
- T/C [10]: 89 % of control

Structure (SMILES): CCCCOC(=O)N[C@H]1CCc2cc(OC)c(OC)c(OC)c2-c2ccc(SC)c(=O)cc21
- T/C (dose: 0.38 mg/kg/injection, schedule: Q01DX009 (ip), vehicle: Klucel (hydroxypropylcellulose) (HPC)): 112 % of control
- T/C (dose: 0.75 mg/kg/injection, schedule: Q01DX009 (ip), vehicle: Klucel (hydroxypropylcellulose) (HPC)): 122 % of control and 123 % of control
- T/C (dose: 1.5 mg/kg/injection, schedule: Q01DX009 (ip), vehicle: Klucel (hydroxypropylcellulose) (HPC)): 114 % of control
- T/C (dose: 12.0 mg/kg/injection, schedule: Q01DX009 (ip), vehicle: Klucel (hydroxypropylcellulose) (HPC)): 94 % of control

Structure (SMILES): CCOC(=O)C(Cc1ccc(N(CCCl)CCCl)cc1)NP1(=O)NCCCO1 (configuration not stated)
- T/C (dose: 14.0 mg/kg/injection, schedule: Q04DX003 (ip), vehicle: saline with Tween-80): 186 % of control
- T/C (dose: 22.0 mg/kg/injection, schedule: Q04DX003 (ip), vehicle: saline with Tween-80): 172 % of control
- T/C (dose: 33.0 mg/kg/injection, schedule: Q04DX003 (ip), vehicle: saline with Tween-80): 218 % of control
- T/C (dose: 50.0 mg/kg/injection, schedule: Q04DX003 (ip), vehicle: saline with Tween-80): 240 % of control

Structure (SMILES): CC1(C)OCC(C2OC(O)C3OC(C)(C)OC32)O1 (configuration not stated)
- T/C (dose: 50.0 mg/kg/injection, schedule: Q01DX005 (ip), vehicle: saline): 100 % of control
- T/C (dose: 100.0 mg/kg/injection, schedule: Q01DX005 (ip), vehicle: saline): 101 % of control
- T/C (dose: 200.0 mg/kg/injection, schedule: Q01DX005 (ip), vehicle: saline): 107 % of control

Structure (SMILES): O=C(COc1cccc2c(=O)cc(-c3ccccc3)oc12)OCCN1CCOCC1
- T/C [2]: 98 % of control
- T/C [3]: 104 % of control
- T/C [10]: 91 % of control

Structure (SMILES): CCN(CC)c1ccc2nc3c4ccccc4c(=O)cc-3n(-c3ccccc3)c2c1
- T/C (dose: 100.0 mg/kg/injection, schedule: Q01DX009 (ip), vehicle: saline with Tween-80): 99 % of control
- T/C (dose: 200.0 mg/kg/injection, schedule: Q01DX009 (ip), vehicle: saline with Tween-80): 101 % of control
- T/C (dose: 400.0 mg/kg/injection, schedule: Q01DX009 (ip), vehicle: saline with Tween-80): 115 % of control

Structure (SMILES): Cc1nn2cc(-c3ccc4ccccc4c3)nc2[nH]c1=O
- T/C [7]: 100 % of control
- T/C [8]: 99 % of control
- T/C [9]: 100 % of control
